Read-outs that look alike come from different tables or passages of the source.
Assays:
A431 (WT) = assay: A431 cells proliferation assay (CellTiter Glo); type: cell-based; settings: Homo sapiens, A-431; cell proliferation, 72 h
Method: Test 4 A431 Cells Proliferation Assay
DMEM and 10% FBS and 1% PS.
(§1) a) The medium was preheated in a 37° C. water bath in advance.
(§2) b) Remove the cryogenic vials from the liquid nitrogen tank, quickly put it into a 37° C. water bath, and completely melt it in 1 min.
(§3) c) Transfer the cell suspension to a 15 mL centrifuge tube containing 8 mL medium, centrifuge 1000 rpm, 5 min.
(§4) d) Discard the supernatant, resuspend the cells in 1 mL medium, and transfer to a 75 cm^2 flask containing 15 mL medium, culture the cells in an incubator at 37° C., 5% CO2.
(§5) b) Collect cell to a 15 mL centrifuged tube, centrifuge at 1000 rpm for 5 min. Discard the supernatant, count, and make the cell density at 1×10^4 cells/mL, then place it in a 37° C., 5% CO2 incubator.
a) The test compound (20 mM stock solution) was diluted to 2 mM with 100% DMSO as starting concentration then 3-fold serial diluted with “9+0” concentrations. in a 96-well dilution plate (Cat # P-05525, Labcyte);
b) The above compound solution was diluted 1:40 times with culture medium to prepare a 5 fold working solution;
(§6) a) Take cells in log phase growth, centrifuge at 1000 rpm for 5 min, then resuspend the cells with culture medium, then count cells;
b) Cells were seeded to 96-well cell culture plate with density at 5000 cells/well;
a) Compounds prepared at step 2 were added to cell plate with 40 μL per well, the final concentrations were 10000, 3333,1111.1, 370.4, 123.5, 41.2, 13.7, 4.6, 1.5 and 0 nM, and the final concentration of DMSO was 0.5%. The blank control well was a culture medium (0.5% DMSO);
(§7) b) The cells were incubated for an additional 72 h in the incubator.
a) Remove the 96-well cell culture plate and add 60 μl of CTG reagent (CellTiter Glo kit, promega, Cat # G7573).
(§8) b) Plate was shaked for 2 min and then let it cool for 10 min at room temperature.
c) The Luminescence signal value was read using a PerkinElmer reader.
Experimental Data Analysis
(§9) Data were analyzed using GraphPad Prism 6.0 software to obtain a fitted curve of compound activity.
(§10) Fit the Compound IC50 from non-linear regression equation:
Y=Bottom+(Top-Bottom)/(1+10((LogIC50-X)×HillSlope));
(§11) X: The log of the concentration of the compound; Y: Luminescence value.
The cells proliferation assay results are expressed with IC50, shown as Table 3.

Ba/F3-Del19/T790M/C797S = Ba/F3-Del19/T790M/C797S (Homo sapiens, UniProt P00533, T790M/C797S, cells depend on it, form not given); assay: Ba/F3-Del19/T790M/C797S cells proliferation assay (CellTiter Glo); type: cell-based; settings: cell proliferation, 72 h, read-out: Ba/F3-Del19/T790M/C797S IC50
Chain of Ba/F3-Del19/T790M/C797S (P00533 with tags, fused parts or gaps DEL746-750/T790M/C797S, form open): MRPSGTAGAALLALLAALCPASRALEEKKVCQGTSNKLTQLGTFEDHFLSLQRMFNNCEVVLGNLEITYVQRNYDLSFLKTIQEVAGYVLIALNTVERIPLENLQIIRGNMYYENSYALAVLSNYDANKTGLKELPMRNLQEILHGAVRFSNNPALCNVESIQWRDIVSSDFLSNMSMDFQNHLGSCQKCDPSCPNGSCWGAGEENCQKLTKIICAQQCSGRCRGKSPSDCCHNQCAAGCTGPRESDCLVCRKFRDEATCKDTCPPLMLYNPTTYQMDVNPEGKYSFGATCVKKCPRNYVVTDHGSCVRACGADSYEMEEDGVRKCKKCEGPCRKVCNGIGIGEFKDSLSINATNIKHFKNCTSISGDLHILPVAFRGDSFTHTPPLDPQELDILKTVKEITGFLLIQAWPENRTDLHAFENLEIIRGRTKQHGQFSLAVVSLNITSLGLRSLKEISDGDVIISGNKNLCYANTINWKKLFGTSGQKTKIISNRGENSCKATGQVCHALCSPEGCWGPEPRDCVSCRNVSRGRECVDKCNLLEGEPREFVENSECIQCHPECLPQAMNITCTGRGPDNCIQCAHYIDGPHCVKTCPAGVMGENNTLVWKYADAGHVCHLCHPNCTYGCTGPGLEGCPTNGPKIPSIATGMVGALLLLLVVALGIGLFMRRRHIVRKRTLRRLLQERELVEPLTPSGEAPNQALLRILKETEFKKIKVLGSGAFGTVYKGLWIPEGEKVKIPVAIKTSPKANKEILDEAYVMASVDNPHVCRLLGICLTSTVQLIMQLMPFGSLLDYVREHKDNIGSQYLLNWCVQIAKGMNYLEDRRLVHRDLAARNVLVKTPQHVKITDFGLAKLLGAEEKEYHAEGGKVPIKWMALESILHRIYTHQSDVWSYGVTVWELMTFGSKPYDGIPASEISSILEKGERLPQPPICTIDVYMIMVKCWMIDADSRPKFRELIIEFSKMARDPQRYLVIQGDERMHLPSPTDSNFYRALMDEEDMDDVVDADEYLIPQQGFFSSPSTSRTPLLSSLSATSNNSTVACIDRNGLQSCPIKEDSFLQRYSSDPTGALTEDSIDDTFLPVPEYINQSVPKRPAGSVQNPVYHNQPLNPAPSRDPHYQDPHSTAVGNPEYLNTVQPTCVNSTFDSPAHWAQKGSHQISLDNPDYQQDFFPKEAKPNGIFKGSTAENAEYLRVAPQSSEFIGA
Method: (§12) a) The medium was preheated in a 37°0 C. water bath in advance.
as §2, §3, §4, §1, §5
(§13) a) The test compound (20 mM stock solution) was diluted to 200uM with 100% DMSO as starting concentration then 3-fold serial diluted with “9+0” concentrations. in a 96-well dilution plate (Cat # P-05525, Labcyte);
(§14) b) The above compound solution was diluted 1:20 times with culture medium to prepare a 10 fold working solution;
as §6
(§15) b) Cells were seeded to 96-well cell culture plate with density at 2000 cells/well;
(§16) a) Compounds prepared at step 2 were added to cell plate with 15 μL per well, the final concentrations were 1000,333, 111.1, 37,12.3, 4.1, 1.4, 0.5, 0.2 and 0 nM, and the final concentration of DMSO was 0.5%. The blank control well was a culture medium (0.5% DMSO);
as §7
(§17) a) Remove the 96-well cell culture plate and add 50 μl of CTG reagent (CellTiter Glo kit, promega, Cat # G7573).
as §8
(§18) c) The Luminescence signal value was read using a PerkinElmer reader. Experimental data analysis
as §9, §10
(§19) Y=Bottom+(Top-Bottom)/(1+10((LogIC50-X)×Hill Slope));
as §11
(§20) The cells proliferation assay results are expressed with IC50, shown as Table 2.

EGFR WT = EGFR WT (Homo sapiens, UniProt P00533); assay: Kinase assay (mobility shift), EGFR wildtype; type: biochemical; settings: top concentration 300 nM
Chain of EGFR WT (P00533 25-1210): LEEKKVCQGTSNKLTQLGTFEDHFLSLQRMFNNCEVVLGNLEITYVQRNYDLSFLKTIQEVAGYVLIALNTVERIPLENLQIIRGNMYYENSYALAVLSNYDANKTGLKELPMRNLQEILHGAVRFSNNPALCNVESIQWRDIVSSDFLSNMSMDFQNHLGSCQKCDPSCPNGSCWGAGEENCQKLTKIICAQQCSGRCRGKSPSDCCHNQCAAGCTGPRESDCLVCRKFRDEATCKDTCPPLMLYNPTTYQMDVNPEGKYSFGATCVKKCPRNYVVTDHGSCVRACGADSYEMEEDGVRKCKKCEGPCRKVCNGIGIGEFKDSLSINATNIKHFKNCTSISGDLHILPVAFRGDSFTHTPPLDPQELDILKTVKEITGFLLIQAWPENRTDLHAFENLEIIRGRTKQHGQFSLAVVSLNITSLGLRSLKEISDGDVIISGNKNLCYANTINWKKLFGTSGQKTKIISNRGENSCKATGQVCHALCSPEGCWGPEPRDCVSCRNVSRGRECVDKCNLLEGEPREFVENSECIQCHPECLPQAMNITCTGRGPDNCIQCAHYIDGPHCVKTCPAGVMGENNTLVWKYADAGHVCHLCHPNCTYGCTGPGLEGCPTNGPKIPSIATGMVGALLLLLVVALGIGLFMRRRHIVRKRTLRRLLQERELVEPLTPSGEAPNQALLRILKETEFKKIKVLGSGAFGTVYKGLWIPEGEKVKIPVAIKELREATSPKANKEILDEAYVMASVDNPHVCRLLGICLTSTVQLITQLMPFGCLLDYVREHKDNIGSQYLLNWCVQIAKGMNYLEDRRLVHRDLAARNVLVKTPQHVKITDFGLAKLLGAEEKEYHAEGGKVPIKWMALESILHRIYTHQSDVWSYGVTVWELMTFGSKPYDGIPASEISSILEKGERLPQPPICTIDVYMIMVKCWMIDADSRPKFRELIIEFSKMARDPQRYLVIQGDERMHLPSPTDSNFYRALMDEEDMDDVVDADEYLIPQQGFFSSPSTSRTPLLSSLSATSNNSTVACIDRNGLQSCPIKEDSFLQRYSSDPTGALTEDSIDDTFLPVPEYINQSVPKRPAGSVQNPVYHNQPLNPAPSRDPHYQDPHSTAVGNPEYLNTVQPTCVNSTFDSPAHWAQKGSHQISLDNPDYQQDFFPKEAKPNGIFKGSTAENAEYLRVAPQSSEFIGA
Method: (§21) Test 1 Kinase Assay for EGFR Del19/T790M/C797S and EGFR Wildtype
(§22) Enzyme reaction protocol are as follows:
(§23) 1. Preparing 1* Kinase buffer as followed.
(§24) 2. Preparing Compound Concentration Gradient: Compounds were tested at a concentration of 300 nM, diluted to 100-fold final concentration in 100% DMSO solution in 96-well plates, and compounds were diluted 3 times with Precision, 10 concentrations. Each concentration of the compound was then further diluted to a 5-fold final concentration of the intermediate dilution solution using 1* Kinase buffer.
(§25) 3.5 μL of each of the prepared intermediate dilution compounds was separately added to the compound wells of the 384-well plate, and each concentration was tested for duplicate wells; 5 μL of 5% DMSO was added to the negative control wells and the positive control wells, respectively.
(§26) 4. 2.5-fold final concentration of the kinase solution was prepared using 1*Kinase buffer.
(§27) 5. Add 10 μL of 2.5-fold final concentration of kinase solution to the compound well and positive control well; add 10 μL of 1*Kinase buffer to the negative control well.
(§28) 6. Centrifuge at 1000 rpm for 30 seconds, shake the reaction plate and incubate for 10 minutes at room temperature.
(§29) 7. A mixed solution of 2.5 times the final concentration of ATP and Kinase substrate (5-FAM-EEPLYWSFPAKKK-CONH2) was prepared using 1*Kinase buffer.
(§30) 8. 10 μL of a 2.5-fold final concentration of a mixed solution of ATP and a substrate was added to initiate the reaction.
(§31) 9. Centrifuge the 384-well plate at 1000 rpm for 30 seconds, mix by shaking, and incubate at room temperature for the corresponding time.
(§32) 10. Add 30 μL of the stop solution to stop the kinase reaction, centrifuge at 1000 rpm for 30 seconds, and mix by shaking.
(§33) 11. Read the conversion rate with Caliper EZ Reader.
(§34) Convert conversion values to inhibition values:
(§35) Percent inhibition 32 (max-conversion)/(max-min)*100.
(§36) “max” stands for the mean value of the positive control well ratio; “min” stands for the mean value of the negative control well.
(§37) Fit the data in log(inhibitor) vs. response Variable slope of GraphPad Prism 5 to obtain IC50 values.
(§38) Equation used is: Y=Bottom+(Top-Bottom)/(1+(IC50/X)^HillSlope)

Ba/F3-L858R/T790M/C797S = Ba/F3-L858R/T790M/C797S (Homo sapiens, UniProt P00533, T790M/C797S/L858R, cells depend on it); assay: Ba/F3-L858R/T790M/C797S cells proliferation assay (CellTiter Glo); type: cell-based; settings: cell proliferation, 72 h, read-out: Ba/F3-L858R/T790M/C797S IC50
Chain of Ba/F3-L858R/T790M/C797S (P00533 whole entry T790M/C797S/L858R): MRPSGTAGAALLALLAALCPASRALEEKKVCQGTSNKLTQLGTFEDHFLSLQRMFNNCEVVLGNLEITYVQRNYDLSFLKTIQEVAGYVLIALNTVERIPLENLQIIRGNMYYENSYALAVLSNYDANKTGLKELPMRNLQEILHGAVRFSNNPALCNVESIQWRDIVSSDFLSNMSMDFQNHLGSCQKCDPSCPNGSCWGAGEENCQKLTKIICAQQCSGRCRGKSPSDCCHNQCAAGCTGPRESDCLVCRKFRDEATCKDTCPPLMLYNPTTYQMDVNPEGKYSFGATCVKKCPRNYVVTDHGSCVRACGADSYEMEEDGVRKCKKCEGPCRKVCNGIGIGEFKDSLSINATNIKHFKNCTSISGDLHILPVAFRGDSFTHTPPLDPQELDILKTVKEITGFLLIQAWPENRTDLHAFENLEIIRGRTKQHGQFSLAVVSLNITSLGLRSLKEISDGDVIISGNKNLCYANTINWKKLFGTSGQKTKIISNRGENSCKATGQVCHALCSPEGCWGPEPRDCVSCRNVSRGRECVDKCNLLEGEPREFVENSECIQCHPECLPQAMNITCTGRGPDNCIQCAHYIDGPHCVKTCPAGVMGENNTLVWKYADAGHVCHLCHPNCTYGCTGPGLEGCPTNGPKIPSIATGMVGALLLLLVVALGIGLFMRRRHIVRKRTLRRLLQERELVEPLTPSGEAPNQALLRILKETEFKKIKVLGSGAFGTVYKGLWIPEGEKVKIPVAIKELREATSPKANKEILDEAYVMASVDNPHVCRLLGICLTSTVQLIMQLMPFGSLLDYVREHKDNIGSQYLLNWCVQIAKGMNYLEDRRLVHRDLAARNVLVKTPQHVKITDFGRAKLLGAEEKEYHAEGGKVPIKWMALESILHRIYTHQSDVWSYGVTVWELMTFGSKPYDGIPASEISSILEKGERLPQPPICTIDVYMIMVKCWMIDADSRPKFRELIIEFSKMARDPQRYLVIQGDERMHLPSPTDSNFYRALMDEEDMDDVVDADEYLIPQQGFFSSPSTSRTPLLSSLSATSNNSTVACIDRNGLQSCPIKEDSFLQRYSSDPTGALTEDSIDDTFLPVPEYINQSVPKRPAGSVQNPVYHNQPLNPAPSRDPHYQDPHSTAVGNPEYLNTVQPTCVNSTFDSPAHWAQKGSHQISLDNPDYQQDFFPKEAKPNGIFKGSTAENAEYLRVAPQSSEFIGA
Method: as §12, §2, §3, §4, §1, §5, §13, §14, §6, §15, §16, §7, §17, §8, §18, §9, §10, §19, §11, §20

EGFR L858R/T790M/C797S = EGFR L858R/T790M/C797S (Homo sapiens, UniProt P00533, C797S/L858R/T790M); assay: Kinase assay (mobility shift), EGFR L858R/T790M/C797S; type: biochemical; settings: numeric values
Chain of EGFR L858R/T790M/C797S (P00533 25-1210 T790M/C797S/L858R): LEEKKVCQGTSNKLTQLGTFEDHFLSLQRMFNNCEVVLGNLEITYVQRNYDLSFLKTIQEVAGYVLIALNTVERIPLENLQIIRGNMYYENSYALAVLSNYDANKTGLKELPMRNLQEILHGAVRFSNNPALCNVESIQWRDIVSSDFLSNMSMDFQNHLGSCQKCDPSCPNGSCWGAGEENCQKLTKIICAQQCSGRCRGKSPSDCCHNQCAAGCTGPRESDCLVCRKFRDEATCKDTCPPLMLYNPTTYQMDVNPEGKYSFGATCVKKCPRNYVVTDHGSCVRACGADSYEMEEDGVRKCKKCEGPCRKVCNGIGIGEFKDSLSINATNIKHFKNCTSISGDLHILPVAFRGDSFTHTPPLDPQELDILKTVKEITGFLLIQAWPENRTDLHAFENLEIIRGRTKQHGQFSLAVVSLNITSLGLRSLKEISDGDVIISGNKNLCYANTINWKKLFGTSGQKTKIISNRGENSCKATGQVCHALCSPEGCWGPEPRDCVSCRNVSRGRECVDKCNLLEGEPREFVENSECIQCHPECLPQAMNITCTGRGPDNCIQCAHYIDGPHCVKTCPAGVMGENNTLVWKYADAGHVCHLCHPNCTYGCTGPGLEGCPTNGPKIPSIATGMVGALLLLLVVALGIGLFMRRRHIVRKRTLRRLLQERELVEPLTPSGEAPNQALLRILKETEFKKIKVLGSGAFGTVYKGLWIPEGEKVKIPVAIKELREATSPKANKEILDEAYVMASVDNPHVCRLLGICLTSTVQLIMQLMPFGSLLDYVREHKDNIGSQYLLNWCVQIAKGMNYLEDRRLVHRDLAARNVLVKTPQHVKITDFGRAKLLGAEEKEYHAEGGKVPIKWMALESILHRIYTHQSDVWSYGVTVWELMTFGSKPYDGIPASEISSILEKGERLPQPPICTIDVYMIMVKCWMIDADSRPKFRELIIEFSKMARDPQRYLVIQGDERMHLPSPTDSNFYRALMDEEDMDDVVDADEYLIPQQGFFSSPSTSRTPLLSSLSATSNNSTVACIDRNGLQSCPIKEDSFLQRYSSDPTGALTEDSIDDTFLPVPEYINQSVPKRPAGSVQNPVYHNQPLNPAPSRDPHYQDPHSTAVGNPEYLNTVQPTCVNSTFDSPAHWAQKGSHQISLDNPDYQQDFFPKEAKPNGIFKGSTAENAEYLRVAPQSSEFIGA
Method: [Worded in the source for another variant; this variant is reported under the same test.] as §21, §22, §23, §24, §25, §26, §27, §28, §29, §30, §31, §32, §33, §34, §35, §36, §37, §38

EGFR Del19/T790M/C797S = EGFR Del19/T790M/C797S (Homo sapiens, UniProt P00533, T790M/C797S, form not given); assay: Kinase assay (mobility shift), EGFR Del19/T790M/C797S; type: biochemical
Method: as §21, §22, §23, §24, §25, §26, §27, §28, §29, §30, §31, §32, §33, §34, §35, §36, §37, §38

[1] = Pharmacokinetic assay, oral administration; type: in vivo; settings: rat, male SD rats, p.o. 5 mg/kg, plasma, formulation differs per row
Method: Test 5 Pharmacokinetic Assay
Male SD rats, oral administration (intragastric administration), 3 in each group. Animals administered by gavage were fasted overnight before the experiment, and the fasting time was from at least 12 hours before administration to 4 hours after administration. The blood was collected using the orbital vein. Time of blood collection by oral administration: 15 min, 30 min, 1 h, 2 h, 4 h, 7 h, 24 h. The blood collection volume was 300 uL, and after anticoagulation with 2.0% EDTA, the blood was centrifuged at 4000 rpm for 5 min, and the blood plasma was taken for about 100 uL, and placed in −20° C. for examination. The plasma sample was analyzed using liquid chromatography tandem mass spectrometry (LC-MS/MS). Plasma concentration-time data for individual animals were analyzed using WinNonlin (V4.1, Pharsight) software with a non-compartmental model and the pharmacokinetic parameters of the test compounds were calculated.

| Compound | IC50 (A431 (WT)) | GI50 (Ba/F3-Del19/T790M/C797S; class symbols) | IC50 (EGFR WT) | GI50 (Ba/F3-L858R/T790M/C797S; class symbols) | IC50 (EGFR L858R/T790M/C797S) | IC50 (EGFR Del19/T790M/C797S) | GI50 (Ba/F3-Del19/T790M/C797S; numeric values) | GI50 (Ba/F3-L858R/T790M/C797S; numeric values) | AUC(0-t) [1] | Cmax [1] | Tmax [1] | half-life [1] |
| --- | --- | --- | --- | --- | --- | --- | --- | --- | --- | --- | --- | --- |
| CN(C)C1CC2(CCN(c3ccc(Nc4ncc(Cl)c(Nc5ccccc5P(C)(C)=O)n4)cc3C(F)(F)F)CC2)C1 [Example 19, (2-((5-chloro-2-((4-(2-(dimethylamino)-7-azaspiro[3.5]nonan-7-yl)-3-(trifluoromethyl)phenyl)amino)pyrimidin-4-yl)amino)phenyl)dimethylphosphine oxide] | 349 nM | 10 to 50 nM | > 300 nM | 10 to 50 nM | 4.5 nM |  |  |  |  |  |  |  |
| CP(C)(=O)c1ccccc1Nc1nc(Nc2ccc(N3CC4(CCC(NCCO)CC4)C3)c(Cl)c2)ncc1Cl [Example 12, (2-((5-chloro-2-((3-chloro-4-(7-((2-hydroxyethyl)amino)-2-azaspiro[3.5]nonan-2-yl)phenyl)amino)pyrimidin-4-yl)amino)phenyl)dimethylphosphine oxide] | 121 nM |  |  | 10 to 50 nM |  | 1 nM | 24.4 nM |  |  |  |  |  |
| CP(C)(=O)c1ccccc1Nc1nc(Nc2ccc(N3CCC4(CC3)CC(N)C4)c(F)c2)ncc1Cl [Example 29, (2-((2-((4-(2-amino-7-azaspiro[3.5]nonan-7-yl)-3-fluorophenyl)amino)-5-chloropyrimidin-4-yl)amino)phenyl)dimethylphosphine oxide] | 95.5 nM |  | 35 nM |  | 1.6 nM |  | 16.9 nM | 32.9 nM |  |  |  |  |
| Cc1cc(Nc2nc(Nc3ccccc3P(C)(C)=O)c3nc[nH]c3n2)ccc1N1CCC2(CC1)CC(N)C2 [Example 21, (2-((2-((4-(2-amino-7-azaspiro[3.5]nonan-7-yl)-3-methylphenyl)amino)-9H-purin-6-yl)amino)phenyl)dimethylphosphine oxide] | 367 nM | > 50 nM | 20 nM | > 50 nM | 0.9 nM |  |  |  |  |  |  |  |
| CP(C)(=O)c1ccccc1Nc1nc(Nc2ccc(N3CCC4(CC3)CC(N)C4)c(Cl)c2)ncc1Cl [Example 8, (2-((2-((4-(2-amino-7-azaspiro[3.5]nonan-7-yl)-3-chlorophenyl)amino)-5-chloropyrimidin-4-yl)amino)phenyl)dimethylphosphine oxide] | 57.5 nM |  |  |  | 1.6 nM | 0.58 nM | 21.5 nM | 17.3 nM | 2820 ng·h/mL | 388 ng/mL | 2.08 h | 3.17 h |

— patent publication US20220064196A1, “EGFR Inhibitors, Compositions and Methods Thereof” (Betta Pharmaceuticals Co., Ltd., priority 2019, published 2022)
